System: Pkd2−/− mice
Assay: Treatment of pregnant female mice from a Pkd2+/- cross; newborn pups examined for kidney cysts, kidney size, edema and body size
Format: in vivo
Protocol: FIG. 1. […] (a) wild-type and (b) Pkd2^−/− kidneys without rosiglitazone treatment. (c) Pkd2^+/− and (d) Pkd2^−/− kidneys with rosiglitazone treatment.
Rosiglitazone, which may inhibit Id2 activity, alleviates the effects of Pkd loss of function mutations. This was shown by treating pregnant female mice from a cross between Pkd2^+/− mice with 80 mg/kg diet/day ciglitazone or rosiglitazone for ten days prior to delivery. […] Similarly, Id2 knockout mice were small. […] In contrast, ciglitazone treatment appeared to have no effect on newborn Pkd2^−/− mice.

[1] = mother treated 80 mg/kg diet/day for ten days prior to delivery

body size of newborn pups [1] | SMILES | cyst formation in Pkd2−/− kidneys (FIG. 1, kidneys with vs without treatment) | edema in Pkd2−/− pup [1] | kidney size and morphology of Pkd2−/− pup (mother treated 80 mg/kg diet/day for ten days prior to delivery, compared to Pkd2−/− littermates of untreated mothers) | effect on newborn Pkd2−/− mice [1]
small body size in six of newborn pups | CN(CCOc1ccc(CC2SC(=O)NC2=O)cc1)c1ccccn1 (centres unmarked) [rosiglitazone, 5-[4-[2-(N-methyl-N-(2-pyridyl)amino)ethoxy]benzyl]thiazolidine-2,4-dione] | inhibits cyst formation | no edema | kidneys of normal size and morphology | 
 | CC1(COc2ccc(CC3SC(=O)NC3=O)cc2)CCCCC1 (centres unmarked) [ciglitazone, 5-[4-[(1 methylcyclohexyl)methoxy]benzyl]thiazolidine-2,4-dione] |  |  |  | no effect
